Where a name gives a salt, the structure may show the parent alone. Read-outs that look alike come from different tables or passages of the source.
Molecular target: T1, GK (glucokinase, residues 12-465) (Homo sapiens, UniProt P35557)
T1 construct: I.D. No. 1 corresponds to residues 12-465 of glucokinase; made in house; host or cells: DH10b-T1r E. coli
T1 sequence (P35557 with tags, fused parts or gaps isoform P35557-2): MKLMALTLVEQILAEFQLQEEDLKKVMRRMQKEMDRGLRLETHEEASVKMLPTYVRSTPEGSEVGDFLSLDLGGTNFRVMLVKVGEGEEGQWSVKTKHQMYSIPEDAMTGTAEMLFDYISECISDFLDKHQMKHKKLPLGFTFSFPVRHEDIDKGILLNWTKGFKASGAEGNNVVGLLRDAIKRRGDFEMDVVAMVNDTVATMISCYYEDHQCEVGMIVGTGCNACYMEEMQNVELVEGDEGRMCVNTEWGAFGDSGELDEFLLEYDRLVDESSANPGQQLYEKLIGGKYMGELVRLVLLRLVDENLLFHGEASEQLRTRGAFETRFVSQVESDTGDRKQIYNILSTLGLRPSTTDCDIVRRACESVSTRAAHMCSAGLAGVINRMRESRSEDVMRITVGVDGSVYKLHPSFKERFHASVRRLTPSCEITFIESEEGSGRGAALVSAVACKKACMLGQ
Test: enzymatic glucokinase activity assay (ATP consumption, KinaseGlo luminescence)
Format: biochemical
Details: 5 μM ATP, 5 mM Glucose, reported as bins; for EC50: Kact = concentration that displays 50% of the maximal increase in GK activity, 60 min, room temperature, read-out: pKact
From the text: The activity of compounds as glucokinase activators may be assayed in vitro, in vivo or in a cell line. Provided below is an enzymatic glucokinase activity assay.
Purified glucokinase may be obtained as follows. […] SEQ.
The expression of recombinant glucokinase protein may be carried out by transformation and growth of DH10b-T1r E. coli cells incorporating the (pFLAG-CTC) plasmid in LB media. Protein expression can be induced in this system by the addition of IPTG to the culture medium.
Recombinant protein may be isolated from cellular extracts by passage over Sepharose Q Fast Flow resin (Pharmacia). This partially purified GK extract may then be further purified by a second passage over Poros HQ10 (Applied Biosystems). The purity of GK may be determined on denaturing SDS-PAGE gel. Purified GK may then be concentrated to a final concentration of 20.0 mg/ml. After flash freezing in liquid nitrogen, the proteins can be stored at −78° C. in a buffer containing 25 mM TRIS-HCl pH 7.6, 50 mM NaCl, and 0.5 mM TCEP.
The activation properties of compounds for GK may be determined using a black 384-well-plate format under the following reaction conditions: 25 mM Hepes pH 7.2, 25 mM NaCl, 10 mM MgCl2, 0.01% Brij35, 1 mM DTT, 5 μM ATP, 5 mM Glucose 2% DMSO. The amount of ATP consumed may be determined quantitatively by addition of equal volume of luciferase reagent (luciferase+beetle luciferin—KinaseGlo Luminescent Kinase Assay kit from Promega). The luminescence intensity may be measured by using the Analyst HT from LJL Biosystems.
The reaction mixture may then be incubated at room temperature for 60 min, and quenched and developed by addition of 10 μL of luciferase reagent. Luminescence intensities of the resulting reaction mixtures may be measured after a 10 min incubation at room temperature. The luminescence intensity may be measured by using the Analyst HT from LJL Biosystems.
pKact and % ACTmax values may be calculated by non-linear curve fitting of the compound concentrations and luminescence intensities to a standard inhibition/activation equation.

[1] = calculated maximal gain in GK enzyme activity at a saturating concentration of the compound, read-out: % ACTmax
[2] = read-out: % ACTmax, calculated maximal gain in GK enzyme activity at a saturating concentration of the compound

Compound	EC50	Emax [1]	% ACTmax (calculated maximal gain in GK enzyme activity at a saturating concentration of the compound)	Emax [2]
COc1cc(S(=O)(=O)C2CC2)c2cnn(C(CC3CCOCC3)C(=O)Nc3ccn(C)n3)c2c1 (centres unmarked) [Compound 83, 2-(4-(cyclopropylsulfonyl)-6-methoxy-1H-indazol-1-yl)-N-(1-methyl-1H-pyrazol-3-yl)-3-(tetrahydro-2H-pyran-4-yl)propanamide]	3980 to 12600 nM	≤ 90%		
Cn1ccc(NC(=O)C(CC2CCOCC2)n2ncc3c(S(=O)(=O)C4CC4)c(F)ccc32)n1 (centres unmarked) [Compound 152, 2-(4-(cyclopropylsulfonyl)-5-fluoro-1H-indazol-1-yl)-N-(1-methyl-1H-pyrazol-3-yl)-3-(tetrahydro-2H-pyran-4-yl)propanamide]	≤ 316 nM	106 to 110%		
O=C(Nc1ncc(F)s1)C(CC1CCOCC1)n1ncc2c(S(=O)(=O)C3CC3)cccc21 (centres unmarked) [Compound 66, 2-(4-(cyclopropylsulfonyl)-1H-indazol-1-yl)-N-(5-fluorothiazol-2-yl)-3-(tetrahydro-2H-pyran-4-yl)propanamide]	≤ 316 nM	101 to 105%		
N#Cc1cnc(NC(=O)C(CC2CCOCC2)n2ncc3c(S(=O)(=O)C4CC4)cccc32)nc1 (centres unmarked) [Compound 126, N-(5-cyanopyrimidin-2-yl)-2-(4-(cyclopropylsulfonyl)-1H-indazol-1-yl)-3-(tetrahydro-2H-pyran-4-yl)propanamide]	≥ 15800 nM	≤ 90%		
Cn1ccc(NC(=O)[C@H](CC2CCOCC2)n2ncc3c(S(=O)(=O)C4CC4)c(F)ccc32)n1 [Compound 165, (S)-2-(4-(cyclopropylsulfonyl)-5-fluoro-1H-indazol-1-yl)-N-(1-methyl-1H-pyrazol-3-yl)-3-(tetrahydro-2H-pyran-4-yl)propanamide]	≤ 316 nM	90 to 100%		
O=C(Nc1ncc(Cl)s1)C(CC1CCOCC1)n1ncc2ccc(S(=O)(=O)C3CC3)cc21 (centres unmarked) [Compound 60, N-(5-chlorothiazol-2-yl)-2-(6-(cyclopropylsulfonyl)-1H-indazol-1-yl)-3-(tetrahydro-2H-pyran-4-yl)propanamide]	≥ 15800 nM	≤ 90%		
O=C(Nc1ncc(Cl)s1)[C@H](CC1CCOCC1)n1ncc2cc(S(=O)(=O)C3CC3)ccc21 [Compound 48, (S)-N-(5-chlorothiazol-2-yl)-2-(5-(cyclopropylsulfonyl)-1H-indazol-1-yl)-3-(tetrahydro-2H-pyran-4-yl)propanamide]	398 to 1260 nM	≥ 111%		
O=C(Nc1cnccn1)C(CC1CCOCC1)n1ncc2c(S(=O)(=O)C3CC3)cncc21 (centres unmarked) [20 (TFA Salt), 2-(4-(cyclopropylsulfonyl)-1H-pyrazolo[3,4-c]pyridin-1-yl)-N-(pyrazin-2-yl)-3-(tetrahydro-2H-pyran-4-yl)propanamide]	1580 to 3160 nM		106-110%	
O=C(O)c1cnc(NC(=O)C(CC2CCCC2)n2cc(S(=O)(=O)C3CC3)cn2)s1 (centres unmarked) [Compound 7, 2-(3-cyclopentyl-2-(4-(cyclopropylsulfonyl)-1H-pyrazol-1-yl)propanamido)thiazole-5-carboxylic Acid]	3980 to 12600 nM	≤ 90%		
Nc1cc(S(=O)(=O)C2CC2)c2cnn(C(CC3CCOCC3)C(=O)Nc3ncc(F)s3)c2n1 (centres unmarked) [Compound 16, 2-(6-amino-4-(cyclopropylsulfonyl)-1H-pyrazolo[3,4-b]pyridin-1-yl)-N-(5-fluorothiazol-2-yl)-3-(tetrahydro-2H-pyran-4-yl)propanamide]	≤ 316 nM			106 to 110%
O=C(Nc1ncc(F)s1)[C@H](CC1CCOCC1)n1ncc2c(S(=O)(=O)C3CC3)cncc21 [Compound 84, (S)-2-(4-(cyclopropylsulfonyl)-1H-pyrazolo[3,4-c]pyridin-1-yl)-N-(5-fluorothiazol-2-yl)-3-(tetrahydro-2H-pyran-4-yl)propanamide]	≤ 316 nM			106 to 110%
O=C(Nc1ncc(F)s1)[C@@H](CC1CCOCC1)n1ncc2c(S(=O)(=O)C3CC3)cncc21 [Compound 85, (R)-2-(4-(cyclopropylsulfonyl)-1H-pyrazolo[3,4-c]pyridin-1-yl)-N-(5-fluorothiazol-2-yl)-3-(tetrahydro-2H-pyran-4-yl)propanamide]	1580 to 3160 nM			90 to 100%
O=C(Nc1ncc(F)s1)[C@@H](CC1CCOCC1)n1cc(S(=O)(=O)C2CCCC2)cn1 [Compound 43, (R)-2-(4-(cyclopentylsulfonyl)-1H-pyrazol-1-yl)-N-(5-fluorothiazol-2-yl)-3-(tetrahydro-2H-pyran-4-yl)propanamide]	≥ 15800 nM	≤ 90%		
Cc1ccc2c(cnn2C(CC2CCOCC2)C(=O)Nc2ccn(C)n2)c1S(=O)(=O)C1CC1 (centres unmarked) [Compound 158, 2-(4-(cyclopropylsulfonyl)-5-methyl-1H-indazol-1-yl)-N-(1-methyl-1H-pyrazol-3-yl)-3-(tetrahydro-2H-pyran-4-yl)propanamide]	398 to 1260 nM	≥ 111%		
Nc1cc(S(=O)(=O)C2CC2)c2cnn(C(CC3CCOCC3)C(=O)Nc3ncc(F)s3)c2c1 (centres unmarked) [Compound 142, 2-(6-amino-4-(cyclopropylsulfonyl)-1H-indazol-1-yl)-N-(5-fluorothiazol-2-yl)-3-(tetrahydro-2H-pyran-4-yl)propanamide]	≤ 316 nM	101 to 105%		
COc1ccc2nc(NC(=O)[C@@H](CC3CCOCC3)n3ccc(S(=O)(=O)C4CC4)n3)sc2n1 [Compound 3, (R)-2-(3-(cyclopropylsulfonyl)-1H-pyrazol-1-yl)-N-(5-methoxythiazolo[5,4-b]pyridin-2-yl)-3-(tetrahydro-2H-pyran-4-yl)propanamide]	≥ 15800 nM	≤ 90%		
O=C(Nc1ncc(Cl)s1)C(CC1CCOCC1)n1ncc2c(S(=O)(=O)C3CC3)cccc21 (centres unmarked) [Compound 59, N-(5-chlorothiazol-2-yl)-2-(4-(cyclopropylsulfonyl)-1H-indazol-1-yl)-3-(tetrahydro-2H-pyran-4-yl)propanamide]	≤ 316 nM	106 to 110%		
Nc1cc(S(=O)(=O)C2CC2)c2cnn([C@@H](CC3CCOCC3)C(=O)Nc3cnccn3)c2n1 [Compound 164, (S)-2-(6-amino-4-(cyclopropylsulfonyl)-1H-pyrazolo[3,4-b]pyridin-1-yl)-N-(pyrazin-2-yl)-3-(tetrahydro-2H-pyran-4-yl)propanamide]	398 to 1260 nM	106 to 110%		
O=C(Nc1cnccn1)C(CC1CCOCC1)n1ncc2c(S(=O)(=O)C3CC3)cncc21 (centres unmarked) [20 (Free Base), 2-(4-(cyclopropylsulfonyl)-1H-pyrazolo[3,4-c]pyridin-1-yl)-N-(pyrazin-2-yl)-3-(tetrahydro-2H-pyran-4-yl)propanamide]	398 to 1260 nM			101 to 105%
O=C(Nc1cnccn1)C(CC1CCOCC1)n1ncc2c(S(=O)(=O)C3CC3)c(F)ccc21 (centres unmarked) [Compound 154, 2-(4-(cyclopropylsulfonyl)-5-fluoro-1H-indazol-1-yl)-N-(pyrazin-2-yl)-3-(tetrahydro-2H-pyran-4-yl)propanamide]	≤ 316 nM	106 to 110%		
NC(=O)c1ccc(NC(=O)[C@H](CC2CCOCC2)n2ncc3c(S(=O)(=O)C4CC4)cccc32)nc1 [Compound 107, (S)-6-(2-(4-(cyclopropylsulfonyl)-1H-indazol-1-yl)-3-(tetrahydro-2H-pyran-4-yl)propanamido)nicotinamide]	≤ 316 nM			≥ 111%
Cn1ccc(NC(=O)C(CC2CCOCC2)n2cc3c(S(=O)(=O)C4CC4)c(F)ccc3n2)n1 (centres unmarked) [Compound 153, 2-(4-(cyclopropylsulfonyl)-5-fluoro-2H-indazol-2-yl)-N-(1-methyl-1H-pyrazol-3-yl)-3-(tetrahydro-2H-pyran-4-yl)propanamide]	≥ 15800 nM	106 to 110%		

Reference: patent US8563730B2, “Pyrazole and fused pyrazole glucokinase activators” (Takeda San Diego, Inc., priority 2008, dated 2013)
